Measured values as given in patent publication US8778923B2, “GLP-1 receptor modulators” (Receptos, Inc., priority 2011, dated 2014).

The molecules below were run against T1, GLP-1R (Homo sapiens, UniProt P43220) (assay: EC20 GLP-1(9-36) PAM cAMP assay: dose response of compound in the presence of fixed concentration of GLP-1(9-36)). Conditions: GLP-1R CRE-bla CHO-K1 cells, compound dose response in presence of fixed concentration of GLP-1(9-36).
T1 construct: host or cells: CRE-bla CHO-K1
Format: cell-based
How it was run: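 Positive allosteric modulation read as cAMP rise: 12-point compound titration combined with a fixed EC20 level of GLP-1(9-36) on GLP-1R CHO-K1 cells, IBMX present, 30 min at 37 °C. Luminescent HitHunter signal converted to cAMP; nonlinear fit gave EC50 and Emax.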

T1 sequence (P43220 24-463): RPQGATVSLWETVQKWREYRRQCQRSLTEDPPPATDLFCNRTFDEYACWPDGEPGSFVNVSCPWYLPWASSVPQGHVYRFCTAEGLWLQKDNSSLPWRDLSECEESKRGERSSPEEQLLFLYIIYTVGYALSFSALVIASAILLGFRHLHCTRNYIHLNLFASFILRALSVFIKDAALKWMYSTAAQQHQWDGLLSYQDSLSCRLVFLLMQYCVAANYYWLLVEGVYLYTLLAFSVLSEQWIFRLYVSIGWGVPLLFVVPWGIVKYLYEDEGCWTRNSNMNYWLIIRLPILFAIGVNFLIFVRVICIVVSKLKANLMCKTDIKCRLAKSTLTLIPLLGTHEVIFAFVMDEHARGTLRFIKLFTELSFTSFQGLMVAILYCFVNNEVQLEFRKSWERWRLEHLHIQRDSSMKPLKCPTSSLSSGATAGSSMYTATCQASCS
T1 sequence (P01275 100-127 partner limits assumed): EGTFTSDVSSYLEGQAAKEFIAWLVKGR

EC50 [nM]	Structure (SMILES)
< 800	CCCCCCOc1ccc(-c2cnc(-c3ccc(C[C@H](NC(=O)c4ccc(C(C)(C)C)cc4)C(=O)O)cc3)nc2)cc1 [Compound 225, (S)-2-(4-(tert-butyl)benzamido)-3-(4-(5-(4-(hexyloxy)phenyl)pyrimidin-2-yl)phenyl)propanoic acid]
2500 to 5000	COc1ccc(-c2nc(-c3ccc(C[C@H](NC(=O)c4ccc(C(C)(C)C)cc4)C(=O)O)cc3)no2)cc1OC [Compound 37]
800 to 2500	CC(C)(C)c1ccc(C(=O)N[C@@H](Cc2ccc(-c3ncc(-c4ccc(N5CCCCC5)cc4)cn3)cc2)C(=O)O)cc1 [Compound 194]
800 to 2500	CC(C)(C)c1ccc(-c2cnc(-c3ccc(C[C@H](NC(=O)c4ccc(C(C)(C)C)s4)C(=O)N[C@H](Cc4cnc[nH]4)C(=O)O)cc3)nc2)cc1 [Compound 356]
